What all share (type): physicochemical
The nature of data set [1]: Stability under mechanical force: tableting under different pressures, XRPD. To be noted: Φ6mm round tooling punch. How it is done:
An appropriate amount of Form CSV was compressed into tablets under different pressures with a Φ6mm round tooling punch. XRPD tests were conducted before and after compression. The test results are listed in Table 6, and the XRPD overlay is depicted in Figure 5.
An appropriate amount of Form CSVI was compressed into tablets under different pressures with a Φ6mm round tooling punch. XRPD tests were conducted before and after compression. The test results are listed in Table 10, and the XRPD overlay is depicted in Figure 12.

Data set [2] is described as follows: Compressibility (tensile strength of tablets, manual tablet press). Conditions: about 60 mg, Φ6mm round tooling, pressure of 3 kN, 24 h at RT; T=2H/πDL. How it is done: (§1) Tablets were prepared by an ENERPAC manual tablet press. About 60 mg of Form CSV and the prior art Form A were separately added to Φ6mm round tooling punches and compressed into tablets under a pressure of 3 kN. The tablets were left at RT for 24 h to allow complete elastic recovery. The diameter (D) and thickness (L) were measured using a vernier caliper, and their radial crushing strength (hardness, H) was determined using a tablet hardness tester. The tensile strength (T) of the powders was calculated with the following formula: T=2H/πDL. […] Under a certain force, higher tensile strength indicates better compressibility.
as §1, with “CSVI” for “CSV”

Data set [3] is described as follows: Storage stability (crystalline form by XRPD, purity by HPLC). To be noted: for Purity (%): HPLC, initial purity 99.51; for Crystalline form / remains stable for at least / Solid form: sealed container; for Crystalline form / Solid form: XRPD; for Crystalline form: initial Form CSV; for Solid form: initial Form CSVI. As for the experimental part:
An appropriate amount of Form CSV was packaged in a sealed container and then stored under the conditions of 25 °C/60%RH, 40 °C/75%RH and 60 °C/75%RH, respectively. Crystalline form and purity were analyzed by XRPD and HPLC. The results are listed in Table 5, and the XRPD pattern overlay is depicted in Figure 4. […] Meanwhile, Form CSV remains stable for at least 2 months under 60 °C/75%RH condition, indicating Form CSV has good stability under stress condition as well.
An appropriate amount of Form CSVI was packaged in a sealed container and then stored under the conditions of 25 °C/60%RH, 40 °C/75%RH and 60 °C/75%RH, respectively. Crystalline form was analyzed by XRPD. The results are listed in Table 9, and the XRPD pattern overlay is depicted in Figure 11. […] Meanwhile, Form CSVI remains stable for at least 2 months under 60 °C/75%RH condition, indicating Form CSVI has good stability under stress condition as well.

The next data set can be described thus: Bulk and tapped density. Conditions: for Bulk density: about 500 mg in 5-mL graduated cylinder, before tapping; for Tapped density: tapped 1250 times. How it is done: About 500 mg of sample was gently loaded into a 5-mL graduated cylinder to measure the bulk volume before tapping. The sample was then tapped 1250 times on a ZS-2E tap density tester to achieve a tapped state, and the tapped volume was recorded. The bulk density ρ0 and tapped density ρf were calculated accordingly.

The nature of data set [4]: Stability under mechanical force: ball milling, XRPD. Conditions: ball milling at 500 rpm for 5 minutes. As for the experimental part:
An appropriate amount of Form CSV was subjected to ball milling at 500 rpm for 5 minutes using a ball mill. […]
An appropriate amount of Form CSVI was subjected to ball milling at 500 rpm for 5 minutes using a ball mill. […]

A short description of data set [5]: Kinetic solubility in FaSSIF and FeSSIF. As for the experimental part: Table 2 [table] When solubility test is used to predict the in vivo performance of a drug, it is critical to simulate in vivo conditions as closely as possible. For oral drugs, FaSSIF and FeSSIF can be used to simulate the conditions in vivo and predict the effect of eating. Solubilities in these media are closer to those in vivo. Appropriate amounts of Form CSVI were suspended in FaSSIF and FeSSIF at 37 °C. After equilibration for 0.5 h, the suspensions were filtered and the concentration (mg/mL) of Compound I in each filtrate was measured by HPLC. […]

Each structure is given as a SMILES string. Values after ≈ are worked out from the molar mass of the structure shown. Where two headings read alike, the source gives them in different places.

Regarding `CCC[C@H](N[C@H]1CCc2cc(F)cc(F)c2C1)C(=O)Nc1cn(C(C)(C)CNCC(C)(C)C)cn1` [Form CSV, (S)-2-(((S)-6,8-difluoro-1,2,3,4-tetrahydronaphthalen-2-yl)amino)-N-(1-(2-methyl-1-(neopentylamino)propan-2-yl)-1H-imidazol-4-yl) pentanamide], the “After tableting (crystalline form)” value in data set [1] (Pressure 5 kN), in data set [1] (Pressure 10 kN) and in data set [1] (Pressure 20 kN) was “Form CSV” in each case. For the same compound, the average tensile strength in data set [2] was 0.55 MPa. The “Purity (%)” value was 99.52% in data set [3] (25 °C/60%RH, 6 months); 99.50% in data set [3] (40 °C/75%RH, 6 months); 99.54% in data set [3] (60 °C/75%RH, 2 months). Moreover, the Crystalline form result is “Form CSV” in data set [3] (25 °C/60%RH, 6 months); “Form CSV” in data set [3] (40 °C/75%RH, 6 months); “Form CSV” in data set [3] (60 °C/75%RH, 2 months). Besides, the “remains stable for at least” value in data set [3] (25 °C/60%RH) is “at least 6 months”; in data set [3] (40 °C/75%RH), “at least 6 months”; in data set [3] (60 °C/75%RH), “at least 2 months”. The compound further displayed a Bulk density in the data set “Bulk and tapped density” of 0.422 g/mL. Further, the Tapped density in “Bulk and tapped density” was 0.506 g/mL. Moreover, the “crystalline form before and after ball milling” value in data set [4] is given as “remained unchanged”.
For `CCC[C@H](N[C@H]1CCc2cc(F)cc(F)c2C1)C(=O)Nc1cn(C(C)(C)CNCC(C)(C)C)cn1` [Form CSVI, (S)-2-(((S)-6,8-difluoro-1,2,3,4-tetrahydronaphthalen-2-yl)amino)-N-(1-(2-methyl-1-(neopentylamino)propan-2-yl)-1H-imidazol-4-yl) pentanamide], the “After tableting (crystalline form)” value in data set [1] (Pressure 5 kN), in data set [1] (Pressure 10 kN) and in data set [1] (Pressure 20 kN) was “Form CSVI” each time. Also, the average tensile strength in data set [2] amounted to 0.907 MPa. Also, the Solid form result in data set [3] (25 °C/60%RH, 8 months) is “Form CSVI”; in data set [3] (40 °C/75%RH, 8 months), “Form CSVI”; in data set [3] (60 °C/75%RH, 2 months), “Form CSVI”. Also, the “remains stable for at least” value was “at least 8 months” in data set [3] (25 °C/60%RH), “at least 8 months” in data set [3] (40 °C/75%RH) and “at least 2 months” in data set [3] (60 °C/75%RH). Moreover, the solubility at 0.5 h was found to be 10100 µg/mL (≈ 20.6 mM) in data set [5] (FeSSIF, 37 °C, equilibration for 0.5 h, HPLC, read-out: solubility (concentration of Compound I in filtrate)) and 16100 µg/mL (≈ 32.9 mM) in data set [5] (fassif, 37 °C, equilibration for 0.5 h, HPLC, read-out: solubility (concentration of Compound I in filtrate)). Also, the “crystalline form before and after ball milling” value in data set [4] is given as “remained unchanged”.
`CCC[C@H](N[C@H]1CCc2cc(F)cc(F)c2C1)C(=O)Nc1cn(C(C)(C)CNCC(C)(C)C)cn1` [Form A, (S)-2-(((S)-6,8-difluoro-1,2,3,4-tetrahydronaphthalen-2-yl)amino)-N-(1-(2-methyl-1-(neopentylamino)propan-2-yl)-1H-imidazol-4-yl) pentanamide, reference compound] yielded an average tensile strength in data set [2] of 0.37 MPa. Also, the solubility at 0.5 h in data set [5] (fassif, solubility (concentration of Compound I in filtrate)) turned out to be 4200 µg/mL (≈ 8.58 mM); in data set [5] (solubility (concentration of Compound I in filtrate)), 7500 µg/mL (≈ 15.3 mM). Besides, the Bulk density in the data set “Bulk and tapped density” (listed as The prior art Form A) was 0.251 g/mL. The compound also returned a Tapped density in “Bulk and tapped density” (listed as The prior art Form A) of 0.282 g/mL.

The values above are taken from patent publication EP4678635A1, “CRYSTAL FORM OF NIROGACESTAT DIHYDROBROMATE, AND PREPARATION METHOD THEREFOR AND USE THEREOF” (Crystal Pharmaceutical (Suzhou) Co., Ltd., priority 2023, dated 2024).
